From patent US20150320709A1, “METHODS AND COMPOSITIONS FOR FACILITATING WEIGHT LOSS BY ADMINISTRATION OF THYROID HORMONES” (priority 2011, published 2015)

What was measured:
[1] = Circulating thyroid hormone labs (FT3, FT4, rT3, TSH) in weight loss program patients on thyroid hormone treatment; format: in vivo, human
Description: FIG. 1 depicts hormonal responses to a hypocaloric state with subsequent treatment. Note: Time frames and shapes of response curves are approximated. Levels of all four hormones are normal before the diet (Time A). At time between time points B and D, TSH is dropping slightly to signal the thyroid gland to make less thyroid hormone. This drop is the mechanism to decrease metabolism in the hypocaloric state. At point C, free T3 begins to drop as rT3 increases. Also at time point C, different observations have been reported for changes in FT4: in our experience, FT4 also drops as indicated on the graph. In the literature, some report no change, whereas others report an increase in FT4. By the time of the blood sampling (time E), in our experience, patients whose FT3 and FT4 have dropped to the low end of normal (with possible above normal rT3 levels) are those experiencing symptoms of low thyroid. They may have any of the following symptoms: feeling cold, cold hands and feet, elevated diastolic blood pressure secondary to vasoconstriction, fatigue, depression, constipation, hair loss, dry skin, insomnia, as well as others. They have often hit a plateau of weight loss even though they have continued to maintain their hypocaloric diet and exercise program. At point F, we begin treatment with thyroid hormone (for example, T4 with T3, T3 alone, T3 with T2 and T4, or T2 alone. Between points F and G, FT3 and rT3 (and FT4 if T4 was administered) are returning to more normal levels, while TSH plummets, often to undetectable levels. At time point H, symptoms of low thyroid are resolved, the patient has no symptoms of hyperthyroidism, and if rT3 had risen and was treated appropriately, rT3 decreased.
The first patient example is a person, 5′2″, weight 268 lbs, body mass index (BMI) 49 (nl 19-24; overweight 25-29; obesity≧30). Baseline blood pressure was 110/74, blood sugar (BS) was 153 mg/dL 10 days after their first visit. Their medical problems at baseline included obesity, type 2 diabetes mellitus (DM2), high blood pressure (HTN), fatigue, depression, and asthma. Their medications included glipizide 10 mg daily, amitriptyline 50 mg daily, metoprolol 50 mg daily, furosemide 40 mg daily, potassium chloride, lisinopril 10 mg daily, Advair Discus 500/50 twice daily (bid), and montelukast 10 mg daily. They were started on our comprehensive program. Five months after starting their weight loss treatment, they developed symptoms of hypothyroidism with constipation and fatigue. They had lost 28 lbs by this time and was having difficulty losing more weight even though they were eating less than they were before their weight loss treatment began. At the start of treatment, their FT4 was 0.9 ng/dL (nl 0.7-1.48). At the time of their low thyroid symptoms, their FT3 was 2.9 pg/mL (nl 1.71-3.71) and their FT4 was 0.91 ng/dL (nl 0.7-1.48). They were then treated with thyroid hormone (desiccated thyroid with a ratio of T4:T3 of about 4:1) at 60 mg daily for 6 days to acclimate, then increased to 120 mg daily. […] After two years on their weight loss treatment, their weight was 231 lbs. […] We tested for rT3 at this point. Their labs on the 150 mg dose of desiccated thyroid were: rT3 394 pg/mL (nl 90-350), FT3 3.94 pg/mL (nl 1.71-3.71), and FT4 1.24 ng/dL (nl 0.7-1.48). The task of bringing down their rT3 was then addressed. Over a period of a few months, their desiccated thyroid hormone was discontinued and instead the patient was given gradually increasing doses of T3 only, starting at 20 mcg daily and gradually increasing the T3 to 60 mcg bid. Five months after starting on T3 with increasing doses, their weight had dropped to 209 lbs. Their BP was 118/66 mmHg with pulse of 74 on lisinopril 10 mg daily, metoprolol 50 mg bid, and furosemide 40 mg daily. Instead of glipizide, they were taking metformin 500 mg bid. […] Their most recent labs on 60 mcg bid of T3 were FT3 3.8 pg/mL (nl 1.71-3.71), FT4 0.64 ng/dL (nl 0.7-1.48) and rT3 137 pg/mL (nl 90-350). Four months prior to this visit their BS was 125 mg/dl. […]

[2] = Low thyroid symptoms / clinical status of weight loss program patients on thyroid hormone treatment; format: in vivo, human; conditions: for reported symptoms: Patient Example 4

N[C@@H](Cc1cc(I)c(Oc2ccc(O)c(I)c2)c(I)c1)C(=O)O [T3, (2S)-2-amino-3-[4-(4-hydroxy-3-iodo-phenoxy)-3,5-diiodo-phenyl]propanoic acid] showed an FT4 ([1]; Patient Example 1, on 60 mcg bid, nl 0.7-1.48) of 0.64 ng/dL, an FT3 ([1]; Patient Example 1, on 60 mcg bid, nl 1.71-3.71) of 3.8 pg/mL and a rT3 ([1]; Patient Example 1, on 60 mcg bid, nl 90-350) of 137 pg/mL. The FT4 ([1]; Patient Example 2, T3 only, 25 mcg bid, nl 0.93-1.70) was 0.67 ng/dL, the FT3 ([1]; Patient Example 2, T3 only, 25 mcg bid, nl 2.2-4.0) was 2.5 pg/mL and the rT3 ([1]; Patient Example 2, T3 only, 25 mcg bid, nl 90-350) was 193 pg/mL. For the same compound, the FT4 ([1]; Patient Example 4, T3 50 mcg 2 PO q am and 1 PO 8-10 hours later, normal range 0.93-1.7) was “less than 0.1 ng/dL”, the FT3 ([1]; Patient Example 4, T3 50 mcg 2 PO q am and 1 PO 8-10 hours later, normal range 2.2-4.0) was 7.0 pg/mL and the rT3 ([1]; Patient Example 4, T3 50 mcg 2 PO q am and 1 PO 8-10 hours later, normal range 90-350) was “less than 15 pg/mL”. For the same compound, the low thyroid symptoms ([2]; Patient Example 3, T3 25 mcg t.i.d. alone, about a week after stopping desiccated thyroid) was “low thyroid symptoms returned”, the reported symptoms ([2]; T3 50 mcg 2 PO q am and 1 PO 8-10 hours later, initial visit) was “feeling cold, hair loss and nail peeling” and the reported symptoms ([2]; same T3 dose (not decreased), over 6 weeks later) was “continued to report suffering from fatigue and coldness”.
